The record followed here is article PMC2766634 (Journal of medicinal chemistry, 2009).

Marks after values point to notes of the source that are not given here.

Data set [1] is described as follows: Cyclic voltammetry in DMSO. Type of data set: physicochemical. As to conditions: for E1/2 in DMSO (half-wave potential, 0/−1 reduction), mean ± SE: cyclic voltammetry, 0.10 M NBu4PF6 in DMSO, 25 °C, 100 mV/s; for E1/2 more positive than Mz: in DMSO, relative to Mz.
For another data set, the system named is HeLa cells. Kind of data set: Cytotoxicity assay. Type of data set: cell-based, human. Particulars: for IC50: Homo sapiens, HeLa, 48 h, read-out: toxicity in HeLa cells, pIC50 (mean ± SE) (converted).
The test system of data set [2] is G. lamblia (WB/C6, GS/M, 106, and 713). The experiment in a line: Antigiardial growth inhibition. Type of data set: cell-based, Giardia lamblia. Particulars: for selectivity ratio, IC50/EC50: IC50 in HeLa cells / EC50 in Giardia.
The nature of data set [3]: Cyclic voltammetry in water pH 7.0. Particulars: pH 7.0 phosphate buffer, 0.1 M KCl, 25 °C. Type of data set: physicochemical.
For a further data set, the system named is G. lamblia GS/M. Kind of data set: Murine G. lamblia infection model. Type of data set: in vivo, Giardia lamblia in C57BL/6 mice. Particulars: mice, five doses over 3 days; for effect on infection (trophozoites in small intestine) at 2 mg/kg: 2 mg/kg oral gavage; for effect on infection (trophozoites in small intestine) at 10 mg/kg: 10 mg/kg oral gavage.

For the compound `Cn1c([N+](=O)[O-])cnc1/C=C/c1ccc2ccccc2c1` [compound 26, 1-Methyl-2-[(E)-2-(2-naphthyl)vinyl]-5-nitro-1H-imidazole], in data set [1], the “E1/2 in DMSO (half-wave potential, 0/−1 reduction), mean ± SE” value was −1.509 ± 0.001 V vs Fc. For the same compound, the IC50 with HeLa cells was 97.7 µM. Besides, the “selectivity ratio, IC50/EC50” value in data set [2] was 1,622.
For “2-[(E)-2-(3a,7a-Dihydro-1,3-benzodioxol-5-yl)vinyl]-1-methyl-5-nitro-1H-imidazole [compound 27]”, the “Ep in water (peak potential), mean ± SE” value in data set [3] is reported as −0.778 ± 0.002 V vs SCE. For the same compound, in data set [1], the “E1/2 in DMSO (half-wave potential, 0/−1 reduction), mean ± SE” value is listed as −1.584 ± 0.001 V vs Fc. For the same compound, in the data set with HeLa cells (2 days culture, three separate experiments), the “toxicity in HeLa cells, pIC50 (mean ± SE)” value is recorded as 4.13 ± 0.10. Also, the “selectivity ratio, IC50/EC50” value in data set [2] was 1,072. Besides, in data set [2] (mean ± SE of average pEC50 of four isolates (WB/C6, GS/M, 106, 713)), the “Activity against G. lamblia pEC50 (mean ± SE)” value worked out at 7.16 ± 0.34.
As for `Cc1ncc([N+](=O)[O-])n1CCO` [Mz, metronidazole, reference compound], in the data set with G. lamblia GS/M, the “effect on infection (trophozoites in small intestine) at 2 mg/kg” value (shortened to “effect on infection … at 2 mg/kg”) is reported as “no significant effect” and the “effect on infection (trophozoites in small intestine) at 10 mg/kg” value (“effect on infection … at 10 mg/kg” for short) is “not parasite eradication”.
`Cc1ccccc1/C=C/c1ncc([N+](=O)[O-])n1C` [compound 6, 1-Methyl-2-[(E)-2-(2-methylphenyl)vinyl]-5-nitro-1H-imidazole]: the “Ep in water (peak potential), mean ± SE” value in data set [3] was −0.621 ± 0.001 V vs SCE. Further, the “E1/2 in DMSO (half-wave potential, 0/−1 reduction), mean ± SE” value in data set [1] is −1.512 ± 0.001 V vs Fc. For the same compound, the IC50 in the data set with HeLa cells is 93.3 µM.
In the case of `Cn1c([N+](=O)[O-])cnc1/C=C/c1ccco1` [compound 29, 2-[(E)-2-(2-Furyl)vinyl]-1-methyl-5-nitro-1H-imidazole], the “effect on infection … at 10 mg/kg” value in the data set with G. lamblia GS/M is given as “complete clearance of the infection”. In data set [1], the “E1/2 in DMSO (half-wave potential, 0/−1 reduction), mean ± SE” value is given as −1.504 ± 0.003 V vs Fc and the “E1/2 more positive than Mz” value was 50–65 mV. The IC50 in the data set on HeLa cells was 93.3 µM. Also, the “selectivity ratio, IC50/EC50” value in data set [2] is on record as 2,754.
Turning to `Cn1c([N+](=O)[O-])cnc1/C=C/c1cccc(F)c1` [compound 19, 2-[(E)-2-(3-Fluorophenyl)vinyl]-1-methyl-5-nitro-1H-imidazole], the “Ep in water (peak potential), mean ± SE” value in data set [3] was −0.613 ± 0.008 V vs SCE. For the same compound, in the data set on G. lamblia GS/M, the “effect on infection … at 2 mg/kg” value was “significant activity” and the “effect on infection … at 10 mg/kg” value is “complete clearance of the infection”. Besides, in data set [1], the “E1/2 in DMSO (half-wave potential, 0/−1 reduction), mean ± SE” value is listed as −1.502 ± 0.001 V vs Fc.
Take `Cc1ccc(C(Br)C(Br)c2ncc([N+](=O)[O-])n2C)cc1` (stereo not drawn) [compound 3, reference compound]: the “E1/2 in DMSO (half-wave potential, 0/−1 reduction), mean ± SE” value in data set [1] is −1.489 ^d ± 0.001 V vs Fc. In the data set on HeLa cells (relative to Mz), the “more toxic than Mz in HeLa” value is over 500 fold. In addition, in data set [2] (relative to Mz), the “increased antigiardial activity over Mz” value turned out to be 40 fold and the “selectivity ratio lower than that of Mz” value is recorded as over 10 fold.
Regarding `CCOC(OCC)c1ccc(/C=C/c2ncc([N+](=O)[O-])n2C)cc1` [compound 23, 2-{(E)-2-[4-(Diethoxymethyl)phenyl]vinyl}-1-methyl-5-nitro-1H-imidazole], the “E1/2 in DMSO (half-wave potential, 0/−1 reduction), mean ± SE” value in data set [1] is reported as −1.518 ± 0.003 V vs Fc. Further, in the data set on HeLa cells, the IC50 is 97.7 µM.
Consider `Cn1c([N+](=O)[O-])cnc1/C=C/c1ccccc1` [compound 5, 1-Methyl-5-nitro-2-[(E)-2-phenylvinyl]-1H-imidazole], for which the “Ep in water (peak potential), mean ± SE” value in data set [3] was −0.634 ± 0.004 V vs SCE. Moreover, the “effect on infection … at 10 mg/kg” value in the data set on G. lamblia GS/M is listed as “complete clearance of the infection”. In addition, in data set [1], the “E1/2 in DMSO (half-wave potential, 0/−1 reduction), mean ± SE” value is listed as −1.517 ± 0.001 V vs Fc and the “E1/2 more positive than Mz” value is recorded as 30–50 mV.
For the compound `Cn1ccnc1/C=C/c1ncc([N+](=O)[O-])n1C` [compound 28, 1-Methyl-2-[(E)-2-(1-methyl-1H-imidazol-2-yl)vinyl]-5-nitro-1H-imidazole], in data set [3], the “Ep in water (peak potential), mean ± SE” value was −0.594 ± 0.014 V vs SCE. Also, in the data set with G. lamblia GS/M, the “effect on infection … at 2 mg/kg” value is given as “significant activity” and the “effect on infection … at 10 mg/kg” value is listed as “complete clearance of the infection”. For the same compound, in data set [1], the “E1/2 in DMSO (half-wave potential, 0/−1 reduction), mean ± SE” value is recorded as −1.497 ± 0.001 V vs Fc and the “E1/2 more positive than Mz” value was 50–65 mV. In addition, the “selectivity ratio, IC50/EC50” value in data set [2] is 1,202.
For the compound `Cn1c([N+](=O)[O-])cnc1/C=C/c1ccc(Br)cc1` [compound 12, 2-[(E)-2-(4-Bromophenyl)vinyl]-1-methyl-5-nitro-1H-imidazole], in data set [3], the “Ep in water (peak potential), mean ± SE” value is −0.605 ± 0.007 V vs SCE. In addition, in the data set on G. lamblia GS/M, the “effect on infection … at 2 mg/kg” value is listed as “no significant activity” and the “effect on infection … at 10 mg/kg” value is recorded as “no significant activity”. The “E1/2 in DMSO (half-wave potential, 0/−1 reduction), mean ± SE” value in data set [1] is reported as −1.506 ± 0.002 V vs Fc.
